From ChEMBL document CHEMBL5131515, “Identification of Pyridinyltriazine Derivatives as Potent panFGFR Inhibitors against Gatekeeper Mutants for Overcoming Drug Resistance” (J Med Chem, 2022)

Assays:
[1] = test system: BaF3; assay: Growth inhibition of mouse BaF3 cells harboring TEL-FGFR3 V555M mutant incubated for 72 hrs by Alamar blue assay; assay type: functional
[2] = biological target: Fibroblast growth factor receptor 2 (Homo sapiens, UniProt P21802); assay: Inhibition of wild-type FGFR2 (unknown origin) by radiometric kinase activity assay
[3] = test system: BaF3; assay: Antiproliferative activity against mouse BaF3 cells harboring TEL-FGFR4 N535K mutant assessed as cell growth inhibition by CellTiter-Glo assay; assay type: functional
[4] = test system: BaF3; assay: cells; assay type: functional; details: Mus musculus
[5] = test system: BaF3; assay: Antiproliferative activity against mouse BaF3 cells harboring TEL-FGFR4 V550E mutant assessed as cell growth inhibition by CellTiter-Glo assay; assay type: functional
[6] = test system: KMS-11; assay: Antiproliferative activity against human KMS-11 cells harboring FGFR3 Y373C mutant assessed as cell growth inhibition by CellTiter-Glo assay; assay type: functional
[7] = biological target: Fibroblast growth factor receptor 3 (Homo sapiens, UniProt P22607); assay: Inhibition of wild-type FGFR3 (unknown origin) by radiometric kinase activity assay
[8] = test system: BaF3; assay: Antiproliferative activity against mouse BaF3 cells harboring TEL-FGFR3 assessed as cell growth inhibition by CellTiter-Glo assay; assay type: functional
[9] = biological target: Fibroblast growth factor receptor 3 (Homo sapiens, UniProt P22607, K650E)
[10] = biological target: CYP2C19 (Homo sapiens, UniProt P33261); assay: Inhibition of CYP2C19 (unknown origin) assessed as remaining activity at 10 uM relative to control; assay type: ADME; details: read-out: Activity
[11] = biological target: Fibroblast growth factor receptor 3 (Homo sapiens, UniProt P22607, K650M)
[12] = Stability in human liver microsomes assessed as parent compound remaining at 1 uM incubated for 30 mins; assay type: ADME, Microsome; details: read-out: Stability
[13] = test system: AN3-CA; assay: Antiproliferative activity against human AN3-CA cells harboring FGFR2 K310R/N549K mutant assessed as cell growth inhibition by CellTiter-Glo assay; assay type: functional
[14] = Stability in dog liver microsomes assessed as parent compound remaining at 1 uM incubated for 30 mins; assay type: ADME, Canis lupus familiaris, Microsome; details: read-out: Stability
[15] = biological target: Fibroblast growth factor receptor 2 (Homo sapiens, UniProt P21802, N549H)
[16] = Toxicity in BALB/c mouse xenografted with human AN3-CA cells assessed as body weight loss at 20 to 40 mg/kg, po qd for 15 days measured once every 2 days; assay type: organism-based; details: in vivo, 360 h, dose 20-40 mg/kg, time 15 day
[17] = Antiproliferative activity against mouse BaF3 cells assessed as cell growth inhibition by CellTiter-Glo assay; details: BaF3 cells
[18] = biological target: Fibroblast growth factor receptor 2 (Homo sapiens, UniProt P21802, V564F)
Description: Inhibition of FGFR2 V564F mutant (unknown origin) by radiometric kinase activity assay

[19] = biological target: CYP2C9 (Homo sapiens, UniProt P11712); assay: Inhibition of CYP2C9 (unknown origin) assessed as remaining activity at 10 uM relative to control; assay type: ADME; details: read-out: Activity
[20] = biological target: CYP3A4 (Homo sapiens, UniProt P08684); assay: Inhibition of CYP3A4 (unknown origin) assessed as remaining activity at 10 uM relative to control; assay type: ADME; details: read-out: Activity
[21] = biological target: Fibroblast growth factor receptor 4 (Homo sapiens, UniProt P22455); assay: Inhibition of wild-type FGFR4 (unknown origin) by radiometric kinase activity assay
[22] = biological target: T1, CYP1A2 (Homo sapiens, UniProt P05177); assay: Inhibition of CYP1A2 (unknown origin) assessed as remaining activity at 10 uM relative to control; assay type: ADME; details: read-out: Activity
T1 sequence (P05177 whole entry): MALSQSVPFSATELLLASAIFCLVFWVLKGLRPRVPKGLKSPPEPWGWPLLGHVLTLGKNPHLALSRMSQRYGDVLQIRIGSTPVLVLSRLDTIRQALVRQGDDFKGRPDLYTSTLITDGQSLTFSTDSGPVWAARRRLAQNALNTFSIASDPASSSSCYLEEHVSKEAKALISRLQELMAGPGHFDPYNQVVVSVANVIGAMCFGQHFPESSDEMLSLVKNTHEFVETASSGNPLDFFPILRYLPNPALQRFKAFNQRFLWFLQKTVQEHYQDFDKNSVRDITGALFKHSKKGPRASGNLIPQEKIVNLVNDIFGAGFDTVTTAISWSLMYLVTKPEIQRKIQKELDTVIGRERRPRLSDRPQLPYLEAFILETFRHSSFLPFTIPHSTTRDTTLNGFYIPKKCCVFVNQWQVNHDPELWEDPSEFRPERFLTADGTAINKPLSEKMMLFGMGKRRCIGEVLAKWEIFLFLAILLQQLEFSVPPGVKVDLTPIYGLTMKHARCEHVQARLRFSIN

[23] = Stability in rat liver microsomes assessed as parent compound remaining at 1 uM incubated for 30 mins; assay type: ADME, Microsome; details: read-out: Stability
[24] = biological target: CYP2D6 (Homo sapiens, UniProt P10635); assay: Inhibition of CYP2D6 (unknown origin) assessed as remaining activity at 10 uM relative to control; assay type: ADME; details: read-out: Activity
[25] = test system: J82; assay: Antiproliferative activity against human J82 cells harboring FGFR3 K652E mutant assessed as cell growth inhibition by CellTiter-Glo assay; assay type: functional
[26] = Oral bioavailability in mouse at 10 mg/kg; assay type: ADME, organism-based; details: in vivo
[27] = biological target: Fibroblast growth factor receptor 3 (Homo sapiens, UniProt P22607, V555M)
[28] = Stability in mouse liver microsomes assessed as parent compound remaining at 1 uM incubated for 30 mins; assay type: ADME, Microsome; details: read-out: Stability
[29] = test system: Fibroblast growth factor receptor 3 (Homo sapiens), P22607 [V555M]; assay: Inhibition of FGFR3 V555M mutant (unknown origin) at 10 uM by radiometric kinase activity assay relative to control
[30] = test system: Fibroblast growth factor receptor 2 (Homo sapiens), P21802 [V564F]; assay: Inhibition of FGFR2 V564F mutant (unknown origin) at 10 uM by radiometric kinase activity assay relative to control
[31] = test system: Fibroblast growth factor receptor 2 (Homo sapiens), P21802 [N549H]; assay: Inhibition of FGFR2 N549H mutant (unknown origin) at 10 uM by radiometric kinase activity assay relative to control
[32] = test system: BaF3; assay: Antitumor activity against mouse BaF3 cells harboring TEL-V555M-FGFR3 mutant xenografted in BALB/c mouse assessed as tumor growth inhibition at 30 mg/kg, ip qd for 15 days measured once every 2 days; assay type: functional; details: BaF3, 360 h, time 15 day
[33] = test system: BaF3; assay: Antitumor activity against mouse BaF3 cells harboring TEL-V555M-FGFR3 mutant xenografted in BALB/c mouse assessed as tumor mean volume at 30 mg/kg, ip qd for 15 days measured once every 2 days (reference value: 100%); assay type: functional; details: time 15 day
[34] = test system: BaF3; assay: Antitumor activity against mouse BaF3 cells harboring TEL-V555M-FGFR3 mutant xenografted in BALB/c mouse assessed as tumor mean volume at 30 mg/kg, po qd for 15 days measured once every 2 days (reference value: 100%); assay type: functional; details: time 15 day
[35] = test system: AN3-CA; assay: Antitumor activity against human AN3-CA cells xenografted in BALB/c mouse assessed as tumor mean volume at 10 mg/kg, po qd for 15 days measured once every 2 days (reference value: 100%); assay type: functional; details: time 15 day

Sequence of CYP2C9 (P11712 whole entry): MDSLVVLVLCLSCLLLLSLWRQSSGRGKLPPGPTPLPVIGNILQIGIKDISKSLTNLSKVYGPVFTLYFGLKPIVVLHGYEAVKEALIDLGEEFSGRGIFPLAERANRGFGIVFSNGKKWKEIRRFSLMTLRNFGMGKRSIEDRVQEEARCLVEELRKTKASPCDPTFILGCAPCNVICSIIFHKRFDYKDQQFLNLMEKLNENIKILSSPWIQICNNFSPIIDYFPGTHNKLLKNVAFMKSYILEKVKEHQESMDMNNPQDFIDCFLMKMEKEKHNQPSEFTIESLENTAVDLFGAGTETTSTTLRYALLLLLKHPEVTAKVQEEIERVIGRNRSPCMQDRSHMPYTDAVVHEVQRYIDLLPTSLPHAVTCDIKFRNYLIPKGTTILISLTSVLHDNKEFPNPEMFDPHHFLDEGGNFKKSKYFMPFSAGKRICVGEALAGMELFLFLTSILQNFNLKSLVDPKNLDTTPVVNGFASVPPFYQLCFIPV
Sequence of Fibroblast growth factor receptor 2 (Homo sapiens, UniProt P21802, N549H) (P21802 22-821 N549H limits assumed): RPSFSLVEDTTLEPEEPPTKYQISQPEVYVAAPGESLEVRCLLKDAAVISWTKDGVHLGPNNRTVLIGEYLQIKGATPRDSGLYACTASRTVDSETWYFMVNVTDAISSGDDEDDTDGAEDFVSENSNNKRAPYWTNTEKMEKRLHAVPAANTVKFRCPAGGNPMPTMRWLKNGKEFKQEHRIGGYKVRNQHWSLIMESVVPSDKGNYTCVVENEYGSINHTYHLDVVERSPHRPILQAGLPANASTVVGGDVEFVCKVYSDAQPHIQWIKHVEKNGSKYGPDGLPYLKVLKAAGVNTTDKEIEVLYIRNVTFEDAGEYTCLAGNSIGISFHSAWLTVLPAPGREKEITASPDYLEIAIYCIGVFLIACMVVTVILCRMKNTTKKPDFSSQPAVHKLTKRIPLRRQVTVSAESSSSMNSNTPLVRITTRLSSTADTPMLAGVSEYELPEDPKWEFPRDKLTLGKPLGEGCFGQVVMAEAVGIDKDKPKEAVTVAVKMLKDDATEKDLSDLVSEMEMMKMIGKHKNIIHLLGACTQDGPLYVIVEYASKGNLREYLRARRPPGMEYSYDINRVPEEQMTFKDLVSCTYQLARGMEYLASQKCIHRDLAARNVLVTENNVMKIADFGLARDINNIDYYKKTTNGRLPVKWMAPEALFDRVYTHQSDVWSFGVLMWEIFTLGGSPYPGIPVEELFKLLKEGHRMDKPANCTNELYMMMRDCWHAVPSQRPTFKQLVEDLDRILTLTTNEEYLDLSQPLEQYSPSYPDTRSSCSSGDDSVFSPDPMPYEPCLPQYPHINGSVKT
Sequence of CYP3A4 (P08684 whole entry): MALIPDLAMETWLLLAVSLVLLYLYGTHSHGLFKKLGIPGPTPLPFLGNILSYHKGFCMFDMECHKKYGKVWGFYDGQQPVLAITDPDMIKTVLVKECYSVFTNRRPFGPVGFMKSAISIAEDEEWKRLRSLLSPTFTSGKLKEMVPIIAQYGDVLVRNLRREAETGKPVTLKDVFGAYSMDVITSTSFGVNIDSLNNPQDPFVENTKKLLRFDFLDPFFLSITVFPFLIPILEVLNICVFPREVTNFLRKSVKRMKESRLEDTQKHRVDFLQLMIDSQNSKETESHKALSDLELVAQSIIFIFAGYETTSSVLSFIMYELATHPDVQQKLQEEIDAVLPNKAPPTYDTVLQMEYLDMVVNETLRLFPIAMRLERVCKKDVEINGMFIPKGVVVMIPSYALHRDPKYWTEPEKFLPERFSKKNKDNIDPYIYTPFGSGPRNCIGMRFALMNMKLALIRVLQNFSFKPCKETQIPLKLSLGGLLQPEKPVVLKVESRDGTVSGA
Sequence of Fibroblast growth factor receptor 3 (Homo sapiens, UniProt P22607, K650M) (P22607 23-806 K650M limits assumed): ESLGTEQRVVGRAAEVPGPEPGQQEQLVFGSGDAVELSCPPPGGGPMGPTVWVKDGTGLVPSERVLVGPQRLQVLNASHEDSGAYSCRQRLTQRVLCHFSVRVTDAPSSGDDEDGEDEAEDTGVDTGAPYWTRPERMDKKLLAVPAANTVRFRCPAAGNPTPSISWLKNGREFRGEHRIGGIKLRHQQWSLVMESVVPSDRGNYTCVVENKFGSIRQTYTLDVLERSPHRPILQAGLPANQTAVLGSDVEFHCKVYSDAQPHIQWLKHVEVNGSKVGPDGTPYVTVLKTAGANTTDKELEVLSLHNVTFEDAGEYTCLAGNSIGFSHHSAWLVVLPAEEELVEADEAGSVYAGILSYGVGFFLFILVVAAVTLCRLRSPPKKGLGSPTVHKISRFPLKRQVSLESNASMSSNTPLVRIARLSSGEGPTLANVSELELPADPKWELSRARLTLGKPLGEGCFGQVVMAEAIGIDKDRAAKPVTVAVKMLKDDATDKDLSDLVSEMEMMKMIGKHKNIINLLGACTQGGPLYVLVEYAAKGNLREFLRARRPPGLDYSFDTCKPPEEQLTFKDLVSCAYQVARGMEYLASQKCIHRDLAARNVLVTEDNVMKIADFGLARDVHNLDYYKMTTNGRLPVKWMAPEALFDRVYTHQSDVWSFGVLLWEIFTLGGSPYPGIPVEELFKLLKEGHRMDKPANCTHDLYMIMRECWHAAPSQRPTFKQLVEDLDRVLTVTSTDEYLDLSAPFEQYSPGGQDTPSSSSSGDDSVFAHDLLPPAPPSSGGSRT
Sequence of Fibroblast growth factor receptor 2 (Homo sapiens), P21802 [N549H] (P21802 whole entry N549H): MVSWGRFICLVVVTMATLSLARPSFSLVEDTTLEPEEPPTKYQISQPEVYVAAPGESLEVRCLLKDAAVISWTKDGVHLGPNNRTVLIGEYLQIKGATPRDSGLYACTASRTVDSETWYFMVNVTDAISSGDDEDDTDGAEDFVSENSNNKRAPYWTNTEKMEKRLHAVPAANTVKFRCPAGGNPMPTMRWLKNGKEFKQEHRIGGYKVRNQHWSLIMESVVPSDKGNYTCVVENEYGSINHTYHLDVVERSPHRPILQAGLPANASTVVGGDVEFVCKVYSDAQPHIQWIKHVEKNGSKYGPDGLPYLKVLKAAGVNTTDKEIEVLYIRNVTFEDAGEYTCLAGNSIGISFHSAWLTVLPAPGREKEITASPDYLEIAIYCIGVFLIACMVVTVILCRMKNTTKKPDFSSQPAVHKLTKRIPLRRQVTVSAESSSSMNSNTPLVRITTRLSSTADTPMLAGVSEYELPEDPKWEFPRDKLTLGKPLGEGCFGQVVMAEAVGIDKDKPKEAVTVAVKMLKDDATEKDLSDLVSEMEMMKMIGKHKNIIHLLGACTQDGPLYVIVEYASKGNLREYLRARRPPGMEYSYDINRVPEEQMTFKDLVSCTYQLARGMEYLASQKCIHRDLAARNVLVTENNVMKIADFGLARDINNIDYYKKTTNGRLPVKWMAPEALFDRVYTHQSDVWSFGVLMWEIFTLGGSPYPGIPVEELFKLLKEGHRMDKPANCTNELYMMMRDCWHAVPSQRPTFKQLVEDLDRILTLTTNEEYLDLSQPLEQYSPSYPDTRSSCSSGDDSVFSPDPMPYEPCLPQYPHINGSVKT
Sequence of Fibroblast growth factor receptor 3 (Homo sapiens, UniProt P22607, K650E) (P22607 23-806 K650E limits assumed): as the sequence (P22607 23-806 K650M limits assumed) above, with M628E counted along it
Sequence of CYP2C19 (P33261 whole entry): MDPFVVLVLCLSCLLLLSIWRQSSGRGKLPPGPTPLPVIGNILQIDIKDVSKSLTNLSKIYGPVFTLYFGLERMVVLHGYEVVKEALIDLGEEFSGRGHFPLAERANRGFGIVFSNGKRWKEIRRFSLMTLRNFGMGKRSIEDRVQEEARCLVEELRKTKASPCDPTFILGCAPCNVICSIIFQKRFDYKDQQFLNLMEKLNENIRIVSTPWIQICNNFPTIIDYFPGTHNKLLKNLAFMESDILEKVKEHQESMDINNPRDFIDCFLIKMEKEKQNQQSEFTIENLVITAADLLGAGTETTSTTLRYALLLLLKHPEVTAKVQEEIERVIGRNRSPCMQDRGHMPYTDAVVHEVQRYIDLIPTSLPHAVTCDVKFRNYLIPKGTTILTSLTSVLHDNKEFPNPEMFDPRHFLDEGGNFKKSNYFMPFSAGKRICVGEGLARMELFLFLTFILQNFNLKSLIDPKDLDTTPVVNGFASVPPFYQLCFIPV

| IC50 [2] [nM] | GI50 [3] [nM] | GI50 [4] [nM] | GI50 [5] [nM] | IC50 [7] [nM] | GI50 [8] [nM] | IC50 [9] [nM] | activity at 10 µM [10] [%] | IC50 [11] [nM] | remaining at 0.5 h, 1 µM [12] [%] | activity at 10 µM [19] [%] | activity at 10 µM [20] [%] | activity at 10 µM [22] [%] | activity at 10 µM [24] [%] | remaining at 0.5 h, 1 µM [28] [%] | inhibition [30] [%] | Structure (SMILES) | GI50 [6] [nM] | GI50 [13] [nM] | GI50 [17] [nM] | GI50 [25] [nM] | further results |
| --- | --- | --- | --- | --- | --- | --- | --- | --- | --- | --- | --- | --- | --- | --- | --- | --- | --- | --- | --- | --- | --- |
|  |  |  |  |  |  |  |  |  |  |  |  |  |  |  |  | Cc1nc2ccc(-n3ncc(C(=O)c4cc5ccccc5[nH]4)c3N)cc2[nH]1 [FGFR INHIBITOR DEBIO 1347] |  |  |  |  | GI50 [1]: 8240 nM |
| < 0.5 | 3650 | 1020 | 2590 | 0.98 | 10 | < 0.5 | 51 | 10.9 | 62.6 | 89.9 | 44.1 | 72.8 | > 100 | 62.1 |  | COc1cc(OC)c(Cl)c(Nc2ncccc2-c2ncnc(Nc3cnn(C4CCNCC4)c3)n2)c1Cl | 111 | 29 | > 5000 | 977 | remaining at 0.5 h, 1 µM [14]: 66.9%; IC50 [15]: 2.53 nM; Activity [16]: Non-Toxic; IC50 [18]: 727 nM; IC50 [21]: 26.3 nM; remaining at 0.5 h, 1 µM [23]: 65.4%; bioavailability [26]: 13.2%; IC50 [27]: 268 nM |
|  |  | > 5000 |  | 1550 | > 5000 |  |  |  |  |  |  |  |  |  | < 50 | COc1cc(N2CCOCC2)ccc1Nc1ncnc(-c2cccnc2Nc2c(Cl)c(OC)cc(OC)c2Cl)n1 | > 50000 | > 50000 | > 5000 | 31200 | inhibition [29]: < 50%; inhibition [31]: < 50% |
|  |  | > 5000 |  | 1710 | > 5000 |  |  |  |  |  |  |  |  |  | < 50 | COc1cc(OC)c(Cl)c(Nc2ncccc2-c2ncnc(Nc3ccc(N4CCOCC4)nc3OC)n2)c1Cl | > 50000 | > 50000 | > 5000 | 31000 | inhibition [29]: < 50%; inhibition [31]: < 50% |
|  | > 5000 | 2600 | 4000 |  | 5 |  | 64.9 |  | 77 | 88.4 | 83 | 77.3 | 94.9 | 22.3 | < 50 | CCN1CCN(c2ccc(Nc3cc(N(C)C(=O)Nc4c(Cl)c(OC)cc(OC)c4Cl)ncn3)cc2)CC1 [INFIGRATINIB] | 220 | 39 | > 5000 | 3340 | inhibition in vivo at 30 mg/kg [32]: 60.2%; Activity [33]: 44.74%; Activity [34]: 49%; remaining at 0.5 h, 1 µM [14]: 8.1%; Activity [35]: 14.1%; remaining at 0.5 h, 1 µM [23]: 10.9% |
| < 0.5 | 1680 | 183 | 749 | < 0.5 | 5 | < 0.5 | 44.6 | 4.8 | 21.8 | 79.1 | 17.6 | 75.9 | 81 | 11.5 |  | COc1cc(OC)c(Cl)c(Nc2ncccc2-c2ncnc(Nc3cnn(C4CCN(C(C)C)CC4)c3)n2)c1Cl | 34 | 21 | > 5000 | 547 | IC50 [15]: < 0.5 nM; IC50 [18]: 189 nM; IC50 [21]: 7.3 nM; IC50 [27]: 22.3 nM |
| < 0.5 | 520 | 733 | 354 | 0.6 | 5 | < 0.5 | 31.8 | 26.1 | 10.2 | 62.3 | 13.3 | 72.6 | 77.3 | 44.8 |  | COc1cc(OC)c(Cl)c(Nc2ncccc2-c2ncnc(Nc3ccc(N4C[C@@H](C)N[C@@H](C)C4)cc3)n2)c1Cl | 237 | 15 | 1530 | 428 | remaining at 0.5 h, 1 µM [14]: 19%; IC50 [15]: 0.52 nM; IC50 [18]: 363 nM; IC50 [21]: 27 nM; remaining at 0.5 h, 1 µM [23]: 11.7%; IC50 [27]: 116 nM |
|  |  | > 5000 |  | 275 | 4120 |  |  |  |  |  |  |  |  |  | < 50 | COc1ccccc1Nc1ncnc(-c2cccnc2Nc2c(Cl)c(OC)cc(OC)c2Cl)n1 | > 50000 | 5550 | > 5000 | 31200 | inhibition [29]: < 50%; inhibition [31]: < 50% |
